From PMC10859961, “Ir(III) Half-Sandwich Photosensitizers with a π-Expansive Ligand for Efficient Anticancer Photodynamic Therapy” (Journal of Medicinal Chemistry, 2024) come the findings set out here.

What all share (type): cell-based, human
The test system of assay [1] is A549 cells. Kind of assay: Mitochondrial membrane potential (JC-1, flow cytometry). Particulars: 10 nM, blue light 1 h. Here is the method:
A549 cells were seeded onto 24-well plates. 24 h later, cells were incubated for 4 h with complexes 2, 4, 6, and 8 at 10 nM and then photoactivated or kept in the dark for an additional hour. Next, the cells were washed with PBS and harvested by trypsinization. Mitochondrial membrane potential changes were immediately measured by the JC-1 (5,5′,6,6′-tetrachloro-1,1′,3,3′-tetraethylbenzimidazolocarbo-cyanine iodide) Mitochondrial Membrane Potential Detection Kit (Biotium), according to the manufacturer’s instructions. As positive control, the cells were coincubated with CCCP (Sigma) at 5 μM for 30 min to disrupt the mitochondrial membrane potential. For each treatment, the fluorescence of 1 × 10^4 cells was analyzed by a Novocyte flow cytometer. JC-1 red aggregates were detected at a wavelength of 590 nm (FL2) and JC-1 green monomers at 529 nm (FL1).
In general terms: In flow cytometry, cells or beads pass a laser one at a time.

Assay [2] concerns A549 cells. Put plainly: Lysosome damage (Acridine Orange, confocal microscopy). Particulars: 10 nM, blue light irradiation. The method, then:
For confocal microscopy experiments, A549 cells were seeded onto glass-bottom 8-well chamber slides (Ibidi) (5 × 10^4 cells per well) and allowed to attach overnight. In each experiment, the cells were treated with the complexes at the indicated conditions and washed with PBS before staining. For mitochondria visualization, the cells were incubated with the fluorescent dye MitoTracker Red CMXRos (Molecular Probes) at 200 nM in serum-free culture medium for 30 min at 37 °C. Cell nuclei were counterstained in blue with Hoechst 33342 (Invitrogen) diluted 1:4000 in DMEM without phenol red. To analyze lysosomal damage, the cells were incubated with AO at 5 μM at 37 °C for 15 min. Before observation, the cells were washed twice with PBS and fresh growth medium without phenol red was added. Cell images were immediately obtained by a Nikon A1R confocal microscope and images were analyzed using the NIS-Elements AR (Nikon, Japan) and the Fiji/ImageJ software.

Assay [3] has as its system A549. Kind of assay: CyQUANT cell viability assay, dark or blue light. Particulars: for PI/Dose / IC50 / PI (IC50,dark/IC50,light): A549; for PI/Dose: 460 nm, dose 24.1 J cm‐2, PI from CyQUANT; for IC50: 48 h; for IC50 / PI (IC50,dark/IC50,light) / photoselectivity: IC50,light in A549 lower than IC50,dark in MRC-5 / phototoxicity indexes: CyQUANT; for PI (IC50,dark/IC50,light): blue light 460 nm; for photoselectivity: IC50,light in A549 lower than IC50,dark in MRC-5: A549 blue light vs nonirradiated MRC-5 lung fibroblasts; for phototoxicity indexes: three cancer cell lines (A549, HeLa, PC-3), blue light. The method, then: (§1) Cells were cultured in 96-well plates at a density of 3000 (A549), 2500 (HeLa), or 5000 (PC-3, 1BR.3.G, and MRC-5) cells per well in cell culture medium and allowed to attach for 24 h. Solutions of the complexes at different concentrations were prepared for cell treatments. In all cases, the solid compounds were weighed using an analytical balance (Mettler Toledo AX205DR) to ensure precise measurements. Subsequently, 5 mM solutions were prepared using DMSO. Solutions were then diluted in water to reach a concentration of 1 mM and then, aliquots were taken and diluted in culture medium to obtain solutions ranging from 0 to 50 μM. […] The cells were treated with these solutions in dark conditions or following the photoactivation protocol (see below). 48 h later the treatments were removed, and cells were washed with phosphate-buffered saline (PBS).
(§2) Initially, the effect of the complexes on the cell viability was determined by the 3-(4,5-dimethylthiazol-2-yl)-2,5-diphenyltetrazolium bromide (MTT) assay.[147] The cells were incubated for 2 h with 100 μL of culture medium together with 10 μL of MTT (Sigma-Aldrich) at 0.5 mg/mL. After discarding the medium, DMSO was added to each well to dissolve the purple formazan crystals. The absorbance of each well was determined on a Multiscan Plate Reader (Synergy 4, Biotek, Winooski) at a wavelength of 570 nm. Cell viability was also assessed using the CyQUANT Direct Cell Proliferation Assay (Thermo Fisher Scientific), following the manufacturer’s instructions. Briefly, after the treatments, the cells were washed with PBS, and an equal volume of culture medium and CyQUANT mix was added to each well. The plates were then incubated for 1 h at 37 °C. Subsequently, the fluorescence intensity was bottom read using a Multiscan Plate Reader (Synergy 4, Biotek, Winooski) with excitation and emission filters of 485 and 528 nm, respectively. In both assays, at least three replicates were measured for each treatment. The concentration that reduces the cell viability by 50% (IC50) was established using the Gen5 software (BioTek). Three independent experiments were carried out for each compound. […] The phototoxicity index (PI = IC50,dark/IC50,light) was determined.
(§3) To assess the photodynamic activity of the complexes, cells were incubated with the complexes for 4 h to enable their intracellular accumulation. The cells were then irradiated with light with a wavelength of 460 nm (blue), 530 nm (green), or 655 nm (red) for 1 h using a LED system (LuxLight) with an effective power of 6.7 mW cm^–2, which provides a total light dose of 24.1 J cm^–2. The LED system was positioned at 25 mm from the cell culture plates.

The subject of assay [4] is 1BR.3.G. Kind of assay: CyQUANT cell viability assay, dark or blue light. The conditions noted are these: for IC50: 48 h; for PI (IC50,dark/IC50,light): blue light 460 nm. The method, then:
as §1, §2, §3

Assay [5] has as its system MRC-5. Kind of assay: CyQUANT cell viability assay, dark or blue light. The conditions noted are these: for PI (IC50,dark/IC50,light): MRC-5, blue light 460 nm; for IC50: 48 h. The method, then: as §1, §2, §3
The test system of assay [6] is HeLa. Put plainly: CyQUANT cell viability assay, dark or blue light. Particulars: for IC50: 48 h; for IC50 / PI (IC50,dark/IC50,light): CyQUANT; for PI (IC50,dark/IC50,light): blue light 460 nm. The method, then:
as §1, §2, §3

For assay [7], the system named is PC-3. Put plainly: CyQUANT cell viability assay, dark or blue light. The conditions noted are these: for IC50 / PI (IC50,dark/IC50,light): PC-3, CyQUANT; for IC50: 48 h; for PI (IC50,dark/IC50,light): blue light 460 nm; for PI/Dose: PC‐3, 460 nm, dose 24.1 J cm‐2, PI from CyQUANT. The method, then:
as §1, §2, §3

Assay [8] relates to A549 cells. Put plainly: Trypan blue exclusion test. The conditions noted are these: complexes at respective IC50 in the dark, 24 h. Here is the method:
To assess the cytotoxicity of the complexes, A549 cells were seeded in 96-well plates and treated with the complexes at the respective IC50,dark value. After 24 h of incubation, 10 μL of Trypan Blue (0.4% solution; Sigma) was added directly to the wells to avoid loss of dead cells in the treatment washes. After 10 min, images of the cells were captured using an Olympus CKX41 Microscope equipped with LCmicro software (Olympus).

Setting [9] is: blue light 460 nm 1 h (24.1 J cm^–2), read-out: IC50,light.
The mark [10] stands for this setting: 1BR.3.G nonmalignant fibroblasts, dark, read-out: IC50,dark.
[11] abbreviates: 1BR.3.G, blue light 460 nm 1 h (24.1 J cm^–2), read-out: IC50,light.
Setting [12] is: MRC-5, blue light 460 nm 1 h (24.1 J cm^–2), read-out: IC50,light.
Setting [13] is: MRC-5 nonmalignant lung fibroblasts, dark, read-out: IC50,dark.

Molecules are shown by their SMILES. Read-outs that look alike come from different tables or passages of the source.

Usually IC50 stands for the concentration at which inhibition is half-maximal. Regarding `Cc1c(C)c(C)[c-](C)c1C.F[B-](F)(F)F.c1ccc2cc3nc4c5ccc[n+]6c5c5[c](cccc5c4nc3cc2c1)[Ir]6[n+]1cc[nH]c1` [complex 4, [(η^5-C5Me5)Ir(Im)(pbpn)]BF4], the “cells with red fluorescence (JC-1 aggregates), upper right quadrant” value (shortened to “cells … upper right quadrant”) in assay [1] worked out at 34.3%. In addition, in assay [2], the “red fluorescent particles (lysosomes, AO staining)” value (“red fluorescent particles” below) is on record as “completely disappeared”. Also, the PI/Dose in assay [3] (listed as 4) is on record as 84; in assay [3] (listed as Complex 4), 84.4; in assay [7] (listed as 4), 84; in assay [7] (listed as Complex 4), 83.9. Besides, the IC50 in assay [3] (setting [9]) turned out to be 0.001 ± 0.0004 µM; in assay [3] (dark, read-out: IC50,dark) it was 2.1 ± 0.6 µM; in assay [4] (setting [10]), 2 ± 0.4 µM; in assay [4] (setting [11]), 0.0008 ± 0.0004 µM; in assay [5] (setting [12]), 0.0031 ± 0.001 µM; in assay [5] (setting [13]), 2.48 ± 0.2 µM. The IC50 is 0.0042 ± 0.0009 µM in assay [6] (setting [9]); 1.55 ± 0.3 µM in assay [6] (dark, read-out: IC50,dark); 0.0011 ± 0.0006 µM in assay [7] (setting [9]); 2.28 ± 0.7 µM in assay [7] (dark, read-out: IC50,dark). Further, the “PI (IC50,dark/IC50,light)” value in assay [3] was 2034; in assay [4] (1BR.3.G), 2451; in assay [5], 790; in assay [6] it was 370; in assay [7], 2022. In addition, in assay [3], the “photoselectivity: IC50,light in A549 lower than IC50,dark in MRC-5” value is recorded as 2480 times. Further, the phototoxicity indexes entry in assay [3] is reported as “approximately 1000”. In addition, the “proportion of cells with uptake of trypan blue dye” value (shortened to “proportion of cells”) in assay [8] was determined as 54%.

Consider `Cc1c(C)c(C)[c-](C)c1C.F[B-](F)(F)F.c1ccc(Cn2cc[n+]([Ir]3[c]4cccc5c6nc7cc8ccccc8cc7nc6c6ccc[n+]3c6c45)c2)cc1` [complex 8, [(η^5-C5Me5)Ir(bzIm)(pbpn)]BF4], for which the “cells … upper right quadrant” value in assay [1] is recorded as 6.6%. In addition, the “red fluorescent particles” value in assay [2] is “completely disappeared”. Further, the PI/Dose turned out to be 52.3 in assay [3] and 48.9 in assay [7]. Further, the IC50 in assay [3] (setting [9]) was determined as 0.0004 ± 0.0003 µM; in assay [3] (dark, read-out: IC50,dark), 0.5 ± 0.2 µM; in assay [4] (setting [10]), 0.5 ± 0.04 µM; in assay [4] (setting [11]) it was 0.0005 ± 0.0002 µM; in assay [5] (setting [12]), 0.0008 ± 0.0001 µM; in assay [5] (setting [13]), 0.68 ± 0.1 µM. The IC50 was 0.0008 ± 0.0002 µM in assay [6] (setting [9]); 0.51 ± 0.1 µM in assay [6] (dark, read-out: IC50,dark); 0.0005 ± 0.0003 µM in assay [7] (setting [9]); 0.64 ± 0.1 µM in assay [7] (dark, read-out: IC50,dark). Moreover, the “PI (IC50,dark/IC50,light)” value is recorded as 1260 in assay [3]; 942 in assay [4] (1BR.3.G); 863 in assay [5]; 622 in assay [6]; 1179 in assay [7]. In addition, the “photoselectivity: IC50,light in A549 lower than IC50,dark in MRC-5” value in assay [3] was found to be 1700 times. The phototoxicity indexes result in assay [3] is “approximately 1000”. Moreover, the “proportion of cells” value in assay [8] is reported as 23%.

As for `Cc1c(C)c(C)[c-](C)c1C.F[B-](F)(F)F.c1ccc2cc3nc4c5ccc[n+]6c5c5[c](cccc5c4nc3cc2c1)[Ir]6[n+]1ccn(CCN2CCCCC2)c1` [complex 6, [(η^5-C5Me5) Ir(Imepip)(pbpn)]BF4], the “cells … upper right quadrant” value in assay [1] was found to be 16.9%. Also, in assay [2], the “red fluorescent particles” value is on record as “completely disappeared”. Moreover, the IC50 came out at 0.0004 ± 0.0002 µM in assay [3] (setting [9]); 0.33 ± 0.2 µM in assay [3] (dark, read-out: IC50,dark); 0.57 ± 0.06 µM in assay [4] (setting [10]); 0.0009 ± 0.0003 µM in assay [4] (setting [11]); 0.0008 ± 0.0002 µM in assay [5] (setting [12]); 0.7 ± 0.08 µM in assay [5] (setting [13]). For the same molecule, the IC50 was 0.0007 ± 0.0002 µM in assay [6] (setting [9]); 0.7 ± 0.27 µM in assay [6] (dark, read-out: IC50,dark); 0.0012 ± 0.001 µM in assay [7] (setting [9]); 1.16 ± 0.16 µM in assay [7] (dark, read-out: IC50,dark). The “PI (IC50,dark/IC50,light)” value in assay [3] stood at 911; in assay [4] (1BR.3.G), 644; in assay [5], 929; in assay [6], 1031; in assay [7], 961. Besides, the “photoselectivity: IC50,light in A549 lower than IC50,dark in MRC-5” value in assay [3] worked out at 1750 times. Also, the phototoxicity indexes entry in assay [3] is listed as “approximately 1000”. The PI/Dose in assay [6] (460 nm, dose 24.1 J cm‐2, PI from CyQUANT) is 42.7. The “proportion of cells” value in assay [8] was 53%.
